For orientation: IC90 means the point of the concentration-response curve where the effect stands at 90%. Usually IC50 stands for the point on the concentration scale where inhibition reaches its midpoint.

In data set [1] the test system is VeroE6/TMPRSS2 cells.
The test system of data set [2] is SARS-CoV-2 Wk-521 strain. Briefly: SARS-CoV-2 infection assay, viral RNA in culture supernatant (VeroE6/TMPRSS2 cells). Type of data set: cell-based. Conditions: for anti-SARS-CoV-2 activity: cell-based assay, VeroE6/TMPRSS2; for SARS-CoV-2 propagation in cultured cells: statement in words; for viral RNA in the culture supernatant: natural oxysterols up to 30 μM, semi-synthetic up to 15 μM; for production of viral RNA with signaling pathway inhibitors: 10 μM.

The test system of data set [3] is SARS-CoV-2. Nature of the data set: Time of addition assay, SARS-CoV-2 viral RNA. The data set is classed as cell-based. The note with it: 15 μM RDV, 15 μM CLQ, 10 μM Oxy210, 10 μM Oxy133.
Data set [4] concerns SARS-CoV-2. Nature of the data set: SARS-CoV-2-induced cytopathic effect (CPE) in VeroE6/TMPRSS2 cells. The data set is classed as cell-based. Conditions: for virus-induced CPE: 48 h post-inoculation, 10 μM RDV, 30 μM cholesterol, 30 μM 7-KC, 10 μM Oxy133, 10 μM Oxy210, MOI 0.001; for SARS-CoV-2-induced cytopathic effect (CPE): remdesivir 20 uM, 7-ketocholesterol 40 uM, 27-hydroxycholesterol 20 uM. For orientation: Cytopathic effects are the visible damage that an infection or toxin causes in cultured cells.

Data set [5] has as its system SARS-CoV-2. Type of data set: cell-based.
The subject of data set [6] is SARS-CoV-2 (isolate USA WA1/2020). Nature of the data set: SARS-CoV-2 infection of Calu-3 cells (dsRNA+ cells, automated microscopy). The note with it: Severe acute respiratory syndrome coronavirus 2, Calu-3, 48 h. Type of data set: cell-based. As to the method: FIGS. 12A-12C depict dose-response curves for Oxy232. (FIG. 12A) Secreted viral RNA in the VeroE6 culture supernatant 24 h post-inoculation was quantified by real-time RT-PCR. Cell viability of Oxy232 treated cells evaluated with an MTT assay. (FIG. 12B) Secreted viral RNA of 3 SARS-CoV-2 strains in the VeroE6 culture supernatant 24 h post-inoculation was quantified by real-time RT-PCR. (FIG. 12C) Calu-3 (ATCC) cells were pretreated with Oxy232 for 2 hours prior to continuous infection with SARS-CoV-2 (isolate USA WA1/2020) at MOI=0.5. 48 h post-infection, cells were fixed, immune-strained, and imaged by automated microscopy for infection (dsRNA+ cells/total cell number) and cell number.
According to a previously published report (Ohashi et al., Identification of Anti-Severe Acute Respiratory Syndrome-Related Coronavirus 2 (SARS-CoV-2) Oxysterol Derivatives In Vitro. Int J Mol Sci. 2021; 22(6):3163. PMCID: PMC8003796) inventors have tested a collection of naturally occurring and semisynthetic oxysterol derivatives in a SARS-CoV-2 cell culture infection assay in VeroE6/TMPRSS2 cells. […] See, Ohashi et al., Int J Mol Sci. 2021; 22(6):3163 and Dittmar et al. Drug repurposing screens reveal cell-type-specific entry pathways and FDA-approved drugs active against SARS-Cov-2. Cell Rep. […] PMCID: PMC7985926. […] Without wishing to be bound by a theory, biological activities of oxysterols, including measures of cell viability, can heavily depend on in vitro assay conditions, such as the fetal bovine serum concentration or the duration of pretreatment with the compounds, among other factors, that may not translate to the in vivo safety of the compounds.

The nature of data set [7]: in vitro. Conditions: African green monkey.
Data set [8] can be described thus: in vitro. Conditions: human.
Where [9] appears, read: MTT assay, 24 h, VeroE6/TMPRSS2 cells.
Setting [10] is: Severe acute respiratory syndrome coronavirus 2, VeroE6/TMPRSS2, 24 h, SARS-CoV-2 viral RNA in culture supernatant, 24 h post-inoculation, VeroE6/TMPRSS2 cells, read-out: IC90.
Where [11] appears, read: Severe acute respiratory syndrome coronavirus 2, SARS-CoV-2 viral RNA in culture supernatant, 24 h post-inoculation, VeroE6/TMPRSS2 cells, read-out: IC50.
The mark [12] stands for this setting: SARS-CoV-2 viral RNA in culture supernatant, 24 h post-inoculation, VeroE6/TMPRSS2 cells, read-out: IC50.
Setting [13] is: SARS-CoV-2 viral RNA in culture supernatant, 24 h post-inoculation, VeroE6/TMPRSS2 cells, read-out: IC90.

“Also recorded” adds a separate entry of the source. Where two headings read alike, the source gives them in different places.

As to `CC(C)CC[C@@H](O)[C@@H](C)[C@H]1CC[C@H]2[C@@H]3CC=C4C[C@@H](O)CC[C@]4(C)[C@H]3CC[C@]12C` [22(R)-OHC, 22(R)-hydroxycholesterol, reference compound], the CC50 in data set [1] (setting [9]) was more than 30 µM. Further, the IC90 in data set [2] (setting [10]) was more than 30 µM. The IC50 in data set [2] (setting [11]) stood at 13.2 µM. Besides, in data set [2], the “anti-SARS-CoV-2 activity” value was “modest anti-SARS-CoV-2 activities” and the “SARS-CoV-2 propagation in cultured cells” value was “substantially inhibited SARS-CoV-2 propagation”.

In turn, `CC(C)CC[C@H](O)[C@@H](C)[C@H]1CC[C@H]2[C@@H]3CC=C4C[C@@H](O)CC[C@]4(C)[C@H]3CC[C@]12C` [22(S)-OHC, 22(S)-hydroxycholesterol, reference compound] came in with a CC50 in data set [1] (setting [9]) of more than 30 µM. Further, the “viral RNA in the culture supernatant” value in data set [2] (24 h post-inoculation) is on record as “did not show apparent reductions in viral RNA”. Also, in data set [2] (setting [10]), the IC90 is more than 30 µM. For the same compound, the IC50 in data set [2] (setting [11]) was more than 30 µM.

`CC(C)[C@@H](O)CC[C@@H](C)[C@H]1CC[C@H]2[C@@H]3CC=C4C[C@@H](O)CC[C@]4(C)[C@H]3CC[C@]12C` [24(S)-OHC, 24(S)-hydroxycholesterol, reference compound]: in data set [1] (setting [9]), the CC50 is more than 30 µM. The concentration for an effect of 90% (IC90) in data set [2] (setting [10]) was more than 30 µM. The IC50 in data set [2] (setting [11]) is 1.3 µM. Moreover, in data set [2], the “anti-SARS-CoV-2 activity” value is listed as “modest anti-SARS-CoV-2 activities” and the “SARS-CoV-2 propagation in cultured cells” value is “substantially inhibited SARS-CoV-2 propagation”.

For the compound `CCN(CC)CCCC(C)Nc1ccnc2cc(Cl)ccc12` (stereo not shown) [CLQ, chloroquine, reference compound], in data set [3] (1 h inoculation plus 2 h), the “viral RNA, compound present at entry” value is reported as “showed the most inhibitory effect”.

Consider `CC(C)CCC[C@@H](C)[C@H]1CC[C@H]2[C@@H]3CC=C4C[C@@H](O)CC[C@]4(C)[C@H]3CC[C@]12C` [Cholesterol, reference compound], for which the CC50 in data set [1] (setting [9]) was more than 30 µM. In data set [2] (24 h post-inoculation), the “viral RNA in the culture supernatant” value is given as “did not show apparent reductions in viral RNA”. Further, in data set [2] (setting [10]), the IC90 is more than 30 µM. Moreover, the IC50 in data set [2] (setting [11]) is more than 30 µM. Moreover, the “virus-induced CPE” value in data set [4] is “but not cholesterol, reduced the SARS-CoV-2-induced CPE”.

For `CS(=O)(=O)c1ccc(C(=O)Nc2ccc(Cl)c(-c3ccccn3)c2)c(Cl)c1` [GDC0449, reference compound], in data set [2] (24 h post-inoculation), the “production of viral RNA with signaling pathway inhibitors” value is reported as “did not decrease the viral RNA levels; also recorded: lack of antiviral activity”.

In turn, `CCCCCC[C@](C)(O)[C@H]1CC[C@H]2[C@@H]3C[C@H](O)[C@H]4C[C@@H](O)CC[C@]4(C)[C@H]3CC[C@@]21C` [Oxy133, (3S,5S,6S,8R,9S,10R,13S,14S,17S)-17-((S)-2-hydroxyoctan-2-yl)-10,13-dimethyl hexadecahydro-1H-cyclopentalalphenanthrene-3,6-diol] came in with a CC50 in data set [1] (setting [9]) of more than 15 µM. Besides, the “SARS-CoV-2 propagation / spread of infection (viral N protein, immunofluorescence)” value in data set [5] is reported as “blocked when treated with Oxy210 but not Oxy133”. The “viral RNA, compound present during the whole life cycle” value in data set [3] (24 h) is “but not the negative control, Oxy133, clearly reduced viral RNA levels”. Further, the “viral RNA, compound present post-entry” value in data set [3] (added 2 h post-inoculation for 21 h) is given as “but not the negative control, Oxy133, clearly reduced viral RNA levels”. Besides, the “viral RNA in the culture supernatant” value in data set [2] (24 h post-inoculation) is “did not show antiviral activity up to 15 μM”. The IC50 in data set [2] (setting [12]) is more than 15 µM. In addition, the IC90 in data set [2] (setting [13]) was more than 15 µM. For the same compound, the “virus-induced CPE” value in data set [4] was “blocked when treated with Oxy210 but not Oxy133”.

For the compound `C[C@]12CC[C@H](O)C[C@@H]1CC[C@@H]1[C@@H]2CC[C@@]2(C)[C@H]1CC[C@@H]2[C@](C)(O)CCc1ccc(F)cc1` [Oxy186, (3S,5S,8R,9S,10S,13S,14S,17S)-17-((R)-4-(4-fluorophenyl)-2-hydroxybutan-2-yl)-10,13-dimethylhexadecahydro-1H-cyclopenta[a]phenanthren-3-ol], the CC50 in data set [1] (setting [9]) was more than 15 µM. Further, the “cytotoxicity / cell viability” value in data set [1] (MTT assay, VeroE6/TMPRSS2 cells) is “No significant cytotoxicity”. Besides, the “viral RNA in the culture supernatant” value in data set [2] (24 h post-inoculation) is “reduced viral RNA level in a dose-dependent manner”. Besides, the IC90 in data set [2] (setting [10]) was more than 15 µM. Also, in data set [2] (setting [11]), the half-inhibitory concentration (IC50) was determined as 7.4 µM. Moreover, the “maximum reduction in viral RNA as compared to control” value in data set [2] (at 12 μM) amounted to 83%. In addition, the SARS-CoV-2-induced cytopathic effect result in data set [4] (oxy8 7.5 uM, oxy16 20 uM, oxy186 20 uM, oxy210 10 uM, 48 h, VeroE6/TMPRSS2) is “protected cells from cytopathic effect”.

As for `CC(C)CCC[C@@H](C)[C@H]1CC[C@H]2[C@@H]3CC=C4[C@@H](O)[C@@H](O)CC[C@]4(C)[C@H]3CC[C@]12C` [Oxy 4-beta-OHC, 4beta-hydroxysterol, reference compound], in data set [1] (setting [9]), the CC50 is more than 30 µM. The “viral RNA in the culture supernatant” value in data set [2] (24 h post-inoculation) is recorded as “did not show apparent reductions in viral RNA”. Also, the IC50 in data set [2] (setting [12]) was more than 30 µM. Besides, in data set [2] (setting [13]), the IC90 is more than 30 µM.

In data set [1] (setting [9]), `CC(C)CCC[C@@H](C)[C@H]1CC[C@H]2[C@@H]3C(=O)C=C4C[C@@H](O)CC[C@]4(C)[C@H]3CC[C@]12C` [Oxy 7-KC, 7-ketocholesterol, reference compound] showed a CC50 of more than 30 µM. For the same compound, the “SARS-CoV-2 propagation / spread of infection (viral N protein, immunofluorescence)” value in data set [5] was “reduced”. Besides, in data set [2] (setting [10]), the IC90 was more than 30 µM. In data set [2] (setting [11]), the IC50 stood at 14.5 µM. Further, in data set [2], the “anti-SARS-CoV-2 activity” value is “modest anti-SARS-CoV-2 activities” and the “SARS-CoV-2 propagation in cultured cells” value was “substantially inhibited SARS-CoV-2 propagation”. Also, the “virus-induced CPE” value in data set [4] is “reduced the SARS-CoV-2-induced CPE”. For the same compound, in data set [4] (48 h, VeroE6/TMPRSS2), the “SARS-CoV-2-induced cytopathic effect (CPE)” value was “inhibited SARS-CoV-2-induced cytopathic effect”.

With `C[C@@H](CO)CCC[C@@H](C)[C@H]1CC[C@H]2[C@@H]3CC=C4C[C@@H](O)CC[C@]4(C)[C@H]3CC[C@]12C` [Oxy 27-OHC, 27-hydroxycholesterol, reference compound], the CC50 in data set [1] (setting [9]) is more than 30 µM. Further, the IC90 in data set [2] (setting [10]) was more than 30 µM. In addition, the IC50 in data set [2] (setting [11]) is 3.5 µM. In data set [2], the “anti-SARS-CoV-2 activity” value was “modest anti-SARS-CoV-2 activities” and the “SARS-CoV-2 propagation in cultured cells” value is listed as “substantially inhibited SARS-CoV-2 propagation”. Moreover, in data set [4] (48 h, VeroE6/TMPRSS2), the “SARS-CoV-2-induced cytopathic effect (CPE)” value is “inhibited SARS-CoV-2-induced cytopathic effect”.

For `CCC(CC)COC(=O)[C@H](C)N[P@](=O)(OC[C@H]1O[C@@](C#N)(c2ccc3c(N)ncnn23)[C@H](O)[C@@H]1O)Oc1ccccc1` [RDV, remdesivir, reference compound], the CC50 in data set [1] (read-out: CC50 (VeroE6), VeroE6) is more than 10 µM; in data set [7], more than 10 µM; in data set [8] it was more than 10 µM. For the same compound, the IC50 in data set [6] (read-out: IC50 (Calu-3)) amounted to 0.08 µM; in data set [2] (Severe acute respiratory syndrome coronavirus 2, Vero C1008, read-out: IC50 (VeroE6)) it was 1.5 µM; in data set [2] (setting [11]), 1.5 µM. In addition, the IC90 in data set [6] (read-out: IC90 (Calu-3)) turned out to be 0.16 µM; in data set [2] (Severe acute respiratory syndrome coronavirus 2, Vero C1008, read-out: IC90 (VeroE6), SARS-CoV-2, VeroE6), 1.5 µM; in data set [2] (setting [10]) it was 2.5 µM.

On to `NC(=O)c1ccc(-c2nc(-c3ccc4c(c3)OCO4)c(-c3ccccn3)[nH]2)cc1` [SB431542, reference compound], for which the “production of viral RNA with signaling pathway inhibitors” value in data set [2] (24 h post-inoculation) is “did not significantly inhibit the production of viral RNA; also recorded: lack of antiviral activity”.
